Square brackets hold non-standard residues; d marks the D form. Peptide text beside a SMILES is read from it. * marks the point of attachment. ξ: configuration not given here. Pip = O=C(O)[C@@H]1CCCCN1; ξD = NC(CC(=O)O)C(=O)O; Bz = O=C(c1ccccc1)*; CH2F = FC*
Assays:
Type in all cases: cell-based
[1] = test system: caspase-8-mediated apoptotic pathway (Fas induced apoptosis); experiment: Anti-Fas induced apoptosis assay
Description: Cellular apoptosis can be induced by the binding of Fas ligand (FasL) to its receptor, CD95 (Fas). Conditions for an assay to measure the effect of compounds on the inhibition of the caspase-8-mediated apoptotic pathway can be found in WO01/42216.

[2] = test system: IL-1β secretion from peripheral blood mononuclear cells; experiment: Inhibition of IL-1β secretion from mixed population of peripheral blood mononuclear cells (PBMC); details: human PBMC, mature IL-1β in supernatant
Description: Processing of pre-IL-1β by caspase-1 can be measured in cell culture using a variety of cell sources. Human PBMC obtained from healthy donors provides a mixed population of lymphocyte and mononuclear cells that produce a spectrum of interleukins and cytokines in response to many classes of physiological stimulators. The assay conditions used for inhibition of IL-1β secretion from mixed population of peripheral blood mononuclear cells can be found in WO01/42216.
The inhibitory potency of the compounds can be represented by an IC50 value, which is the concentration of inhibitor at which 50% of the mature IL-1β is detected in the supernatant as compared to the positive controls.

TNF-alpha = experiment: Inhibition of TNF release from whole blood (LPS induced); details: Homo sapiens, LPS 5 ng/ml, overnight, ELISA
Protocol: Human blood was freshly drawn from healthy donors and collected in vacutainers. Blood was diluted 1:2 in PBS (tissue culture, pyrogen free) in a sterile bottle and inverted to mix well. Aliquots of 0.5 ml of blood mixture were dispensed into cluster tubes in 96 well format.
Dilutions of the test compounds were prepared in RPMI by taking 100 mM DMSO stocks of the compounds and diluting 1:10 in RPMI medium in eppendorfs, to give a 10 mM stock. 1:5 serial dilutions were prepared from the stock solutions.
LPS was kept at a frozen stock (−20 degrees C.) at 1 mg/ml in PBS and then diluted to 1:10 with RPMI medium and finally diluted in the medium again 1:350. 50 μl of each test compound (first concentration was 100 μM) were added to the blood samples and then stimulated with 10 μl LPS (final concentration in the well is 5 ng/ml). The contents were gently mixed using an 8 well multi-channel pipette and incubated at 37° C. over night. At the end of the incubation time, contents were gently mixed, then spun down at 1000×g for 5 mins at 20° C. The serum supernatants were transferred to a fresh plate without disturbing the RBCs and diluted 1:2 with the diluent RD6C.
TNF-alpha levels of supernatants were assayed using the R+D systems ELISA kit, using R+D systems protocol. Samples were read at 450 nm.

Row | IC50 [1] | IC50 [2] | IC50 (TNF-alpha; exact value in brackets) | IC50 (TNF-alpha; stated as bound) | SMILES
1 | < 0.05 µM |  |  |  | O=C(O)CC(NC(=O)[C@@H]1CCCCN1C(=O)c1ccccc1)C(=O)CF (stereo partly drawn) [Compound 3, [3S/R,(2S)]-5-Fluoro-4-oxo-3-[1-benzoyl-2-piperidinecarboxamido]-pentanoic acid] (Bz-[Pip]-[ξD]-CH2F)
2 |  | < 0.5 µM | 5.04 µM | < 6 µM | O=C(O)CC(NC(=O)[C@@H]1CCCCN1C(=O)c1ccc(-c2cccc(C(F)(F)F)c2)o1)C(=O)CF (stereo partly drawn) [Compound 10, [3S/R,(2S)]-5-Fluoro-4-oxo-3-[1-[2-(3-trifluoromethyl-phenyl)-furan-4-carbonyl]-2-piperidinecarboxamido]-pentanoic acid]

From US7807659B2, “Caspase inhibitors and uses thereof” (Vertex Pharmaceuticals Incorporated, priority 2001, dated 2010)
